The values that follow come from ChEMBL document CHEMBL2407052, “7-Substituted-sulfocoumarins are isoform-selective, potent carbonic anhydrase II inhibitors” (Bioorg Med Chem, 2013).

Experiment [1] deals with T1, Carbonic anhydrase 9 (Homo sapiens, UniProt Q16790). Put plainly: Inhibition of human transmembrane carbonic anhydrase 9 up to 50 uM after 6 hrs by stopped flow CO2 hydrase assay.
Experiment [2] has as its target T2, Carbonic anhydrase 1 (Homo sapiens, UniProt P00915). Put plainly: Inhibition of human cytosolic carbonic anhydrase 1 up to 50 uM after 6 hrs by stopped flow CO2 hydrase assay.
Target sequence in this assay (P00915 2-261 limits assumed): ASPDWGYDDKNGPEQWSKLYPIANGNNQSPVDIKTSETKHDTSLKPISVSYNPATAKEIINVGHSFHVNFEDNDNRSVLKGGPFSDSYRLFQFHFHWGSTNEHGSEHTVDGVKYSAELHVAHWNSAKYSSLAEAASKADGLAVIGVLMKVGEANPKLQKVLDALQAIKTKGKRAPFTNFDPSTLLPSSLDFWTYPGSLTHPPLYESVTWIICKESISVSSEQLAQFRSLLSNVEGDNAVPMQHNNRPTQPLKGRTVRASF
For the next experiment, the target named is Carbonic anhydrase 12 (Homo sapiens, UniProt O43570). The experiment can be described thus: Inhibition of human transmembrane carbonic anhydrase 12 after 6 hrs by stopped flow CO2 hydrase assay.
The target of experiment [3] is T1, Carbonic anhydrase 9. Put plainly: Inhibition of human transmembrane carbonic anhydrase 9 after 6 hrs by stopped flow CO2 hydrase assay.
Experiment [4] deals with T2, Carbonic anhydrase 1. Put plainly: Inhibition of human cytosolic carbonic anhydrase 1 after 6 hrs by stopped flow CO2 hydrase assay.
Target sequence in this assay (P00915 whole entry): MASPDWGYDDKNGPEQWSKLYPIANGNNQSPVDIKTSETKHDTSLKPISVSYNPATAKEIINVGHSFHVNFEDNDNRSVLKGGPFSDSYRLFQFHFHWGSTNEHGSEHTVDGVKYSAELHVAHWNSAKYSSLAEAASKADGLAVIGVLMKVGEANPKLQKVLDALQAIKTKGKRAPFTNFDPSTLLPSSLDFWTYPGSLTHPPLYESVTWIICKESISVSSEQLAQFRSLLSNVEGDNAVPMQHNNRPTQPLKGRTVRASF

Molecules are shown by their SMILES. Active and inactive are the calls of the source. The rule behind the calls is not given here.

As a reminder, the Ki is a measure of affinity in units of concentration, obtained from inhibition or displacement.

Carbonic anhydrase 12, sequence (O43570 whole entry): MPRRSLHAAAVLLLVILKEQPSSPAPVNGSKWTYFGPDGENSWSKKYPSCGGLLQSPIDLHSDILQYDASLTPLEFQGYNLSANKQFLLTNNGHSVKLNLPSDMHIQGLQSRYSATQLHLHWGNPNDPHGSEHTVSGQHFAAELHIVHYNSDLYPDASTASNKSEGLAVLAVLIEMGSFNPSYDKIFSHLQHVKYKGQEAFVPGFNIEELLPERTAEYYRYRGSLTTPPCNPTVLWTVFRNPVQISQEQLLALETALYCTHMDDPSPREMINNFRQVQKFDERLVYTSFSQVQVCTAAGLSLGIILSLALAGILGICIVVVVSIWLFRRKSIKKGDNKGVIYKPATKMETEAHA

On to `O=S1(=O)CCc2ccc(O)cc2O1`, for which the inhibition result at Carbonic anhydrase 9 [1] and on Carbonic anhydrase 1 [2] was “inactive” each time. In addition, the Ki at Carbonic anhydrase 12, at Carbonic anhydrase 9 [3] and at Carbonic anhydrase 1 [4] was > 10 µM throughout.
On to `O=C(Cc1ccccc1Br)Oc1ccc2c(c1)OS(=O)(=O)CC2`, for which the inhibition entry on Carbonic anhydrase 9 [1] and on Carbonic anhydrase 1 [2] was “inactive” in each case. Moreover, the inhibition constant (Ki) on Carbonic anhydrase 12, at Carbonic anhydrase 9 [3] and at Carbonic anhydrase 1 [4] was > 10 µM throughout.
For `O=C(Cc1ccc(Cl)cc1)Oc1ccc2c(c1)OS(=O)(=O)CC2`, the inhibition result at Carbonic anhydrase 9 [1] and on Carbonic anhydrase 1 [2] was “inactive” each time. The Ki at Carbonic anhydrase 12, at Carbonic anhydrase 9 [3] and at Carbonic anhydrase 1 [4] was > 10 µM throughout.
In the case of `O=S1(=O)C=Cc2ccc(OCc3ccccc3)cc2O1`, the inhibition result at Carbonic anhydrase 9 [1] and on Carbonic anhydrase 1 [2] was “inactive” in each case. Further, the Ki at Carbonic anhydrase 12, at Carbonic anhydrase 9 [3] and on Carbonic anhydrase 1 [4] was > 10 µM throughout.
Regarding `O=C(Cc1ccccc1Br)Oc1ccc2c(c1)OS(=O)(=O)C=C2`, the inhibition result on Carbonic anhydrase 9 [1] and at Carbonic anhydrase 1 [2] was “inactive” each time. Besides, the Ki on Carbonic anhydrase 12, at Carbonic anhydrase 9 [3] and on Carbonic anhydrase 1 [4] was > 10 µM throughout.
Turning to `O=S1(=O)CCc2ccc(OCc3ccccc3)cc2O1`, the inhibition entry on Carbonic anhydrase 9 [1] and on Carbonic anhydrase 1 [2] was “inactive” each time. In addition, the Ki at Carbonic anhydrase 12, at Carbonic anhydrase 9 [3] and on Carbonic anhydrase 1 [4] was > 10 µM each time.
On to `O=S1(=O)CC(O)c2ccc(OCc3ccccc3)cc2O1` (racemic), for which the inhibition result on Carbonic anhydrase 9 [1] and on Carbonic anhydrase 1 [2] was “inactive” throughout. Besides, the inhibitory constant (Ki) at Carbonic anhydrase 12, at Carbonic anhydrase 9 [3] and on Carbonic anhydrase 1 [4] was > 10 µM in each case.
For the molecule `CC(=O)Oc1ccc2c(c1)OS(=O)(=O)C=C2`, the inhibition entry on Carbonic anhydrase 9 [1] and on Carbonic anhydrase 1 [2] was “inactive” in each case. Also, the inhibitory constant (Ki) on Carbonic anhydrase 12, on Carbonic anhydrase 9 [3] and on Carbonic anhydrase 1 [4] was > 10 µM throughout.
Turning to `CS(=O)(=O)Oc1ccc2c(c1)OS(=O)(=O)C=C2`, the inhibition result on Carbonic anhydrase 9 [1] and on Carbonic anhydrase 1 [2] was “inactive” throughout. The inhibition constant Ki at Carbonic anhydrase 12, at Carbonic anhydrase 9 [3] and on Carbonic anhydrase 1 [4] was > 10 µM in each case.
In the case of `COc1ccc2c(c1)OS(=O)(=O)C=C2`, the inhibition result on Carbonic anhydrase 9 [1] and on Carbonic anhydrase 1 [2] was “inactive” each time. Besides, the Ki at Carbonic anhydrase 12, on Carbonic anhydrase 9 [3] and at Carbonic anhydrase 1 [4] was > 10 µM in each case.
`O=C(Cc1ccc(Cl)cc1)Oc1ccc2c(c1)OS(=O)(=O)C=C2`: the inhibition entry at Carbonic anhydrase 9 [1] and at Carbonic anhydrase 1 [2] was “inactive” in each case. Moreover, the inhibition constant Ki on Carbonic anhydrase 12, at Carbonic anhydrase 9 [3] and at Carbonic anhydrase 1 [4] was > 10 µM each time.
As to `O=S1(=O)CC(O)c2ccc(O)cc2O1` (stereo not given), the inhibition result on Carbonic anhydrase 9 [1] and at Carbonic anhydrase 1 [2] was “inactive” each time. Further, the inhibition constant (Ki) at Carbonic anhydrase 12, on Carbonic anhydrase 9 [3] and at Carbonic anhydrase 1 [4] was > 10 µM throughout.
Take `COc1ccc2c(c1)OS(=O)(=O)CC2`: the inhibition entry at Carbonic anhydrase 9 [1] and at Carbonic anhydrase 1 [2] was “inactive” throughout. In addition, the inhibition constant Ki on Carbonic anhydrase 12, on Carbonic anhydrase 9 [3] and on Carbonic anhydrase 1 [4] was > 10 µM throughout.
Regarding `CS(=O)(=O)Oc1ccc2c(c1)OS(=O)(=O)CC2`, the inhibition result on Carbonic anhydrase 9 [1] and on Carbonic anhydrase 1 [2] was “inactive” each time. Moreover, the Ki on Carbonic anhydrase 12, on Carbonic anhydrase 9 [3] and on Carbonic anhydrase 1 [4] was > 10 µM in each case.
As to `O=S1(=O)C=Cc2ccc(O)cc2O1`, the inhibition result on Carbonic anhydrase 9 [1] and on Carbonic anhydrase 1 [2] was “inactive” in each case. Moreover, the inhibition constant (Ki) at Carbonic anhydrase 12, at Carbonic anhydrase 9 [3] and on Carbonic anhydrase 1 [4] was > 10 µM throughout.
For the molecule `CC(=O)Oc1ccc2c(c1)OS(=O)(=O)CC2`, the inhibition entry at Carbonic anhydrase 9 [1] and at Carbonic anhydrase 1 [2] was “inactive” throughout. The Ki at Carbonic anhydrase 12, at Carbonic anhydrase 9 [3] and at Carbonic anhydrase 1 [4] was > 10 µM in each case.
